One assay concerns exon 7 of the SMN2 gene. Put plainly: RT-PCR analysis of SMN exon 7 expression in EBV transformed lymphoid cell lines of SMA patients. It is filed as cell-based, human.
Assay [1] relates to exon 7-containing SMN protein. In words: Western-blot analysis (H2 and H7 antibodies) of SMN protein in SMA patient lymphoid cell lines. It is filed as cell-based, human. As to conditions: cytosolic and nuclear fractions, 4 hours stimulation, 0.5 ng/ml to 5 μg/ml. Here is the method:
Lymphoid cells were isolated from SMA patients with different degrees of severity. Whole blood was drawn from the patients, heparinized, then diluted 1:1 with PBS (phosphate buffered saline). The diluted sample was layered on a Ficoll-Hypaque gradient, and centrifuge at 2500 rpm for 30 minutes at room temperature. The buffy coat was collected from the centrifuged sample, washed twice with 5 ml PBS, collected, and resuspended in 5 ml RPMI medium, 0.5 ml Epstein-Barr virus (EBV stock), 50 μl PHA, and 50 μl of cyclosporine (0.2 mg/ml). The virus-treated sample was mixed well and transferred into a T-flask for incubation at 37° C. in a 5% CO2 incubator for 3 weeks.
Rabbits were immunized with synthetic peptides containing either human SMN amino acids 279-288 from exon 7 or amino acids 72-84 from exon 2. Specific antibodies (H7 and H2 batches) were purified from rabbit crude sera with an EAH-sepharose 4B column (Pharmacia) according to the manufacturer's instructions.
Protein samples, prepared from treated and untreated SMA lymphoid cells, were loaded on a 5% polyacrylamide stacking gel above a 12% separating gel, and the gel was run with a discontinuous buffer using Laemmli's method. […] The secondary antibody was detected with a 1.5% solution of 5-bromo-4-chloro-3-indoyl phosphate and 3% nitro blue tetrazolium in a developing buffer (100 mM NaCl, 5 mM MgCl2, 100 mM Tris.HCl, pH 9.5). […]

Assay [2] concerns SMA-like mice (hSMN2 Smn-/-). Put plainly: Treatment of types 2 and 3 SMA-like mice via drinking water. It is filed as in vivo, mouse. The text has this:
To generate hSMN2 Smn^−/− mice, hSMN2 Smn^+/− mice were crossed to Smn^+/− mice. Progeny lacking the murine SMN locus were identified by genotyping. The presence of the hSMN2 transgene was also confirmed.
These mice frequently developed chronic necrosis of the tail tip, muscular atrophy, subcutaneous edema in hindlimbs, and paralysis of hindlimbs. Type 3 mice survived and bred normally. The mild symptoms of these mice include short but enlarged tails.
The effect of sodium butyrate on the symptoms of SMA-like mice were investigated. Sodium butyrate was administered to ten SMA-like mice with type 2 symptoms and ten SMA-like mice with type 3 symptoms. These mice were identified at birth by genotype and phenotype. Thereafter, their drinking water was supplemented with a 0.8 μg/ml or an 8 μg/ml solution of sodium butyrate. The drinking water was available ad libitum. The amount of sodium butyrate taken by SMA-like mice was estimated to be approximate 4-80 μg/day. The survival time of sodium butyrate-treated type 2 SMA-like mice was longer, about 4 to 5 days longer on average, than untreated mice.
The effect of sodium butyrate administration on the tail phenotype of SMA-like mice was also monitored. The tails of untreated types 2 and 3 SMA-like mice have decreased diameter of muscle fibers, atrophy of muscle bundles, group atrophy and subcutaneous edema (Hsieh-Li et al. (2000) supra). […] The tail of a treated mouse was about 5 cm long on average, whereas the tail of an untreated mouse was about 1 cm long. Remarkably, the average length of the tail of treated mice, 5 cm, is close to the average length for wild-type mice, 6 cm.

In assay [3] the test system is SMA-like mice (progeny of hSMN2 Smn+/- intercross). In words: In utero treatment of SMA-like mice (pregnant mice from hSMN2 Smn+/- intercross). It is filed as in vivo, mouse. Here is the method:
To evaluate the therapeutic effect of sodium butyrate for severely affected SMA mice, the test compound was administered to pregnant mice from an hSMN2 Smn^+/− intercross. The number mice born with SMA-like phenotypes were counted and classified according to type. In one case, 4-8 μg/day sodium butyrate was administered to pregnant mice from a hSMN2 Smn^+/− intercross ad libitum in their drinking water beginning from 15 day post-coitum until parturition (Table 1).

The mark [4] stands for this setting: treated mothers, 4-8 μg/day from 15 day post-coitum until parturition (untreated 10%).
Where [5] appears, read: treated mothers, 4-8 μg/day from 15 day post-coitum until parturition, 294 total pups.

“Also recorded” adds a separate entry of the source.

In the case of `CCCC(=O)[O-].[Na+]` [sodium butyrate], the “splicing of SMN2 transcripts” value in the assay on exon 7 of the SMN2 gene (RT-PCR, treated vs untreated cells) was “changed to include exon 7”. Further, the “amount of exon 7-containing SMN mRNA” value in the assay on exon 7 of the SMN2 gene (lymphoid cells cultured with 5 ng/ml to 50 μg/ml) is given as “increased”. The “time of greatest increase of exon 7-containing SMN mRNA after addition of the drug” value in the assay on exon 7 of the SMN2 gene (lymphoid cells, 5 ng/ml to 50 μg/ml) amounted to 4 h. For the same compound, in the assay with exon 7 of the SMN2 gene (relative to untreated control, lymphoid cells from all three types of SMA patients), the “level of full-length SMN mRNA transcript” value is given as “increased levels of full-length SMN transcript; also recorded: increase”. Also, in assay [1], the “amount of intact (exon 7-containing) SMN protein” value was “increase”. Also, the “tail histopathology relative to untreated SMA-like mice” value in assay [2] (treated SMA-like mice) is “fewer atrophied muscle bundles, less group atrophy, and reduced subcutaneous edema”. In assay [2] (treated SMA-like mice (untreated 50%)), the “frequency of chronic necrosis originating at the tip of the tail” value is 2%. For the same compound, the “tail length on average” value in assay [2] (treated type 3 SMA-like mice (untreated about 1 cm, wild-type 6 cm)) is reported as “about 5 cm”. In addition, in assay [2] (type 2 SMA-like mice, drinking water 0.8 or 8 μg/ml, approx. 4-80 μg/day), the “survival time longer than untreated mice, on average” value was in the range of 4 to 5 days. For the same compound, in assay [2] (type 3 SMA-like mice), the tail phenotype result is “close to wild-type”. For the same compound, the “exon 7-containing SMN protein levels in tissues” value in assay [2] (western blot and immunohistochemistry, multiple tissues including spinal cord motor neurons) was “elevated”. The “symptoms of progeny from treated mothers vs progeny from untreated mothers” value in assay [3] (higher dose, 40-80 μg/day) was “milder symptoms”. The “percent of pups with Type 2 symptoms” value in assay [3] (treated mothers, 4-8 μg/day from 15 day post-coitum until parturition (untreated 5%)) was 7%. In addition, in assay [3] (setting [4]), the “percent of pups with Type 1 symptoms” value came out at 7% and the “percent of pups with Type 3 symptoms” value is 16%. In assay [3] (setting [5]), the “number of pups with Type 2 symptoms” value is reported as 22 and the “number of pups with Type 3 symptoms” value stood at 48. Moreover, the “number of pups with Type 1 symptoms” value in assay [3] (treated mothers, 4-8 μg/day in drinking water from 15 day post-coitum until parturition, 294 total pups) is listed as 21.

Source of the values: US6376508B1, “Treatments for spinal muscular atrophy” (priority 2000, dated 2002).
